Laboratory results reported in patent publication US20030109468A1, “Novel compounds that enhance dimerization of the subunits of HIV-1 reverse transcriptase having mutations associated with resistance to nonnucleoside reverse transcriptase inhibitors” (priority 2001, published 2003).
“Also recorded” adds a separate entry of the source. Where two headings read alike, the source gives them in different places.

Tests used:
[1] = biological target: T1, lexA87-66W401A and Gal4AD-HA-51W401A (Human immunodeficiency virus type 1 group M subtype B, UniProt P12497, W988A); assay: Coimmunoprecipitation of p66 and p51 in yeast lysates, W401A mutant; assay type: cell-based, HIV-1
T1 construct: p66 corresponds to codons 1-560 and p51 corresponds to codons 1-440 in the RT gene; expressed in transfected cells; host or cells: Saccharomyces cerevisiae CTY10-5d
Description: […]; Preparation of protein extracts and immunoprecipitation were as previously described (30) except for the use of anti-HA.11 monoclonal antibodies (clone 16B12; Covance, Princeton, N.J.) and Protein G-PLUS agarose beads (Santa Cruz Biotechnology; Santa Cruz, Calif.). Samples were resolved by SDS-PAGE. The lexA87-66 fusion protein was probed using monoclonal antibodies 7E5 which specifically detects p66 (31).
To directly test for induced heterodimerization by NNRTIs we subjected lysates from yeast expressing dimerization defective mutants to coimmunoprecipitation. […]. Hemagglutinin (HA) antibodies were used to immunoprecipitate the p51 prey and the presence of any bound p66 bait was then detected using anti-p66 specific antibodies. For coimmunoprecipitation of the p66 bait fusions, samples were divided into two with one part processed without added NNRTI while the other was maintained in drug at the same concentration used during growth of yeast. […] […].

[2] = biological target: T2, lexA87-66 and Gal4AD-51 (p66 and p51 subunits of the HIV-1 RT) (Human immunodeficiency virus type 1 group M subtype B, UniProt P12497); assay type: cell-based
T2 construct: p66 corresponds to codons 1-560 and p51 corresponds to codons 1-440 in the RT gene; expressed in transfected cells; host or cells: Saccharomyces cerevisiae CTY10-5d
Method: Transformation of yeast and the qualitative β-galactosidase (β-gal) colony lift assay were as published (19). Quantification of protein-protein interactions was determined using the β-gal liquid assay performed on permeabilized yeast grown from three independent transformants using orthonitrophenyl-β-D-galactopyranoside as substrate (19).
(§1) CTY10-5d transformed constructs expressing p66 bait and p51 prey fusions were grown overnight to stationary phase in synthetic complete medium without histidine and leucine and containing 2% glucose (SC-His-Leu). […] Yeast were grown with aeration at 30° C. to OD600=0.5. The equivalent of 1 OD600 unit was pelleted for each treatment and subjected to a quantitative _-gal liquid assay.
To test the effects of NNRTIs on the association of the RT polypeptides we used a yeast genetic assay that measures RT heterodimerization (22). In this assay yeast expressing the p66 subunit of the HIV-1 RT fused to the C-terminus of lexa 87 (lexA87-66) and the p51 subunit fused to the Gal4AD (Gal4AD-51) constitutively interact, resulting in the activation of the expression from an integrated Lac Z reporter gene. To test for the effects of the NNRTIs on this interaction, 10 drugs representing 7 different NNRTI classes were added to the culture medium during growth of the yeast and β-gal levels were determined.

[3] = biological target: T3, HIV-1 RT p66 bait and p51 prey fusions with the W401A change (Human immunodeficiency virus type 1 group M subtype B, UniProt P12497, W988A); assay type: cell-based; conditions: W401A in one or both subunits
T3 construct: p66 corresponds to codons 1-560 and p51 corresponds to codons 1-440 in the RT gene; expressed in transfected cells; host or cells: Saccharomyces cerevisiae CTY10-5d
Method: as §1

[4] = biological target: T4, HIV-1 RT p66 bait and p51 prey fusions with the L234A change (Human immunodeficiency virus type 1 group M subtype B, UniProt P04585, L821A); assay type: cell-based; conditions: L234A in one or both subunits
T4 construct: p66 corresponds to codons 1-560 and p51 corresponds to codons 1-440 in the RT gene; expressed in transfected cells; host or cells: Saccharomyces cerevisiae CTY10-5d
Method: as §1

HIV-1 = conditions: cited from earlier work
p66-His and GST-p51 = biological target: T5, p66-His and GST-p51 (Human immunodeficiency virus type 1 group M subtype B, UniProt P04585); assay type: binding, HIV-1
T5 construct: p66 corresponds to codons 1-560 and p51 corresponds to codons 1-440 in the RT gene; made in house; host or cells: E. coli M15 (p66-His) and BL21 (GST-p51), unpurified lysates
Method: Plasmids expressing wild-type and p66 mutants with a histidine tag at the C-terminus (p66-His) were constructed by cloning the p66 coding region into the SphI -BglII site of pQE-70 (Qiagen, Chatsworth, Calif.). […] Glutathione S-transferase tagged p51 (GST-p51) was prepared by subcloning the BamHI-SalI fragment from p51HXGADNOT into pGEX5X-3 (Amersham Pharmacia). Cells were induced and then lysed by the addition of 1 mg/ml of lysozyme to 1 ml of lysis buffer [50 mM sodium phosphate buffer (pH 7.8), 500 mM NaCl, 0.5% Nonidet P-40, 5 mM DTT, and 1 μg/ml each of pepstatin A, aprotinin and leupeptin] and clarified. Lysates were combined and incubated for 16 hrs at 4° C. The heterodimer was captured on Glutathione Sepharose 4B beads and unbound subunits were removed by washing with lysis buffer. Heterodimer bound to beads were resolved by SDS/PAGE. For quantification of RT activity, dimers were eluted from beads with 10 mM reduced glutathione in 50 mM Tris (pH 8.0). Samples were assayed for DNA polymerase activity on homopolymeric template-primers for various times, and the activity was determined from the initial slope of the linear phase of the time course.

[5] = biological target: T6, lexA87-66L234A and Gal4AD-HA-51L234A (Human immunodeficiency virus type 1 group M subtype B, UniProt P04585, L821A); assay type: cell-based, HIV-1; conditions: yeast grown with efavirenz 1.6 μM or UC781 16 μM, compared to no drug
T6 construct: p66 corresponds to codons 1-560 and p51 corresponds to codons 1-440 in the RT gene; expressed in transfected cells; host or cells: Saccharomyces cerevisiae CTY10-5d
Description: Samples were resolved by SDS-PAGE.
Hemagglutinin (HA) antibodies were used to immunoprecipitate the p51 prey and the presence of any bound p66 bait was then detected using anti-p66 specific antibodies. For coimmunoprecipitation of the p66 bait fusions, samples were divided into two with one part processed without added NNRTI while the other was maintained in drug at the same concentration used during growth of yeast.

RT heterodimer = biological target: T7, RT heterodimer (Human immunodeficiency virus type 1 group M subtype B, UniProt P12497); conditions: cited from earlier work
T7 construct: The HIV-1 RT is an asymmetric dimer consisting of p66 and p51 polypeptides

p66/p51 heterodimer = biological target: T8, p66/p51 heterodimer (Human immunodeficiency virus type 1 group M subtype B, UniProt P12497); conditions: cited from earlier work
T8 construct: The HIV-1 RT is an asymmetric dimer consisting of p66 and p51 polypeptides

HIV-1 RT = HIV-1 RT (Human immunodeficiency virus type 1 group M subtype B, UniProt P12497); assay type: biochemical; conditions: exogenous RT assay, results not shown
[6] = biological target: lexA87-66Y181C and wild type Gal4AD-51 (Human immunodeficiency virus type 1 group M subtype B, UniProt P12497, Y768C); assay type: cell-based, HIV-1; conditions: yeast grown in the presence of drug
Method: as §1

[7] = biological target: HIV-1 RT with Y181C mutation in the p66 subunit (Human immunodeficiency virus type 1 group M subtype B, UniProt P12497, Y768C); conditions: cited from earlier work
[8] = tested on: moloney murine leukemia virus reverse transcriptase with elongation factor release factor 1 and other unrelated pairs; assay: Y2H specificity control, unrelated protein-protein interaction pairs; assay type: cell-based
Description: (§2) The specificity of the β-gal enhancement by NNRTIs was investigated. […].

lexA87 and Gal4AD = assay: Y2H specificity control, empty vectors pSH21 and pGADNOT; assay type: cell-based; conditions: serial dilutions, even in the presence of 15 μM of drug
Description: as §2

[9] = biological target: p66W401A-His and GST-p51W401A (Human immunodeficiency virus type 1 group M subtype B, UniProt P12497, W988A); assay: In vitro heterodimerization in bacterial lysates, W401A mutant
Method: The heterodimerization of bacterially expressed wild-type p66-His and GST-p51 (or mutants) was assessed in bacterial lysates as described previously (22). […] Lysates were washed 4 times with lysis buffer using a centricon-YM-50 filter device (Millipore Corporation, Bedford, Mass.) to remove unbound drug. 5 μg of the corresponding RT subunit was applied to the washed lysates (in 500 μl) and incubated for 1.5 hr at 40C. Heterodimers were captured onto beads (22), resolved by SDS/PAGE and detected using RT antibodies (monoclonal antibody 5B2) (31).

[10] = yeast expressing lexA87-66 and Gal4AD-51 grown with drug
[11] = bacterial lysates, overnight at 4° C.

Molecule: CC(C)=CCOc1cc(NC(=S)c2ccoc2C)ccc1Cl [UC781, N-[4-chloro-3-(3-methyl-2-butenyloxy)phenyl]-2-methyl-3-furancarbothioamide]
- p66 bait coimmunoprecipitated with p51 prey, W401A ([1]; yeast grown with efavirenz 1.6 μM or UC781 16 μM, compared to no drug): heterodimer formation
- enhancement of β-gal activity, in words / relative potency [2, 10]: second most potent drug
- enhancement of β-gal activity, W401A mutant, in words [3]: could also enhance the β-gal activity
- enhancement of β-gal activity, L234A mutant, in words [4]: no enhancement
- inhibition of HIV-1 replication in vitro (HIV-1): extremely potent inhibitors
- enhancement of dimerization of GST-p51 and p66-His in vitro, in words (p66-His and GST-p51; [11]): poor dimerization inducers
- p66 bait coimmunoprecipitated with p51 prey, L234A [5]: not for the L234A mutant
- binding to the RT heterodimer (RT heterodimer): bind very tightly
- dissociation rates (Koff) (RT heterodimer): very slow dissociation rates

Molecule: CCn1c(=O)c(C)cn([C@@H]2O[C@H](CO[Si](C)(C)C(C)(C)C)C3(OS(=O)(=O)C=C3N)[C@H]2O[Si](C)(C)C(C)(C)C)c1=O (stereo partly drawn) [TSAOe^3T]
- destabilization of the p66/p51 heterodimer (p66/p51 heterodimer): more modest destabilization only detectable in the presence of denaturants

Molecule: CC(C)OC(=O)c1cc(NC(=S)OC(C)C)ccc1Cl [UC38]
- concentration of drug that mediates a 5-fold increase in β-gal activity, rank ([2]; Y2H assay, results not shown): least active
- RT inhibitory activity (50% inhibitory concentration), rank (HIV-1 RT): least active

Molecule: Cc1ccnc2c1NC(=O)c1cccnc1N2C1CC1 [nevirapine, 11-cyclopropyl-5,11,-dihydro-4-methyl-6H-dipyrido[3,2-b:2′3′-][1,4] diazepin-6-one]
- β-gal enhancement with Y181C in the p66 bait [6]: totally negated the enhancement effect
- increase in resistance conferred by Y181C [7]: > 100 fold

Molecule: 2′,5′-bis-O-(tert-butylidimethylsilyl) -3′-spiro-5″-4″-amino-1″,2″-oxothiole-2″,2″-dioxide)]-b-D- pentofuranosyl [TSAO]
- inhibition of β-gal activity in the Y2H system ([2]; preliminary tests, data not shown, uptake by yeast not ruled in): no inhibition of β-gal activity
- effect on heterodimerization in in vitro binding assays (p66-His and GST-p51; preliminary tests, data not shown): reduce heterodimerization
- destabilization of the p66/p51 heterodimer (p66/p51 heterodimer): destabilization of the p66/p51 heterodimer; also recorded: destabilize the p66/p51 heterodimer

Molecule: CC(C)Nc1cccnc1N1CCN(C(=O)c2cc3cc(NS(C)(=O)=O)ccc3[nH]2)CC1 [delavirdine, piperazine, 1-[3-[(1-methyl-ethyl)amino]-2-pyridinyl]-4-[[5-[(methysulfonyl)amino]-1H-indol-2-yl]carbonyl]-, monomethanesulfonate]
- enhancement of β-gal activity, in words / relative potency [2]: devoid of P-gal enhancing activity
- enhancement of dimerization of GST-p51 and p66-His in vitro, in words (p66-His and GST-p51): inactive in vitro

Molecule: Cc1occc1C(=S)Nc1ccc(Cl)c(/C=N/OC(C)(C)C)c1 [UC10]
- enhancement of dimerization of GST-p51 and p66-His in vitro, in words (p66-His and GST-p51; [11]): poor dimerization inducers

Molecule: O=C1Nc2ccc(Cl)cc2[C@@](C#CC2CC2)(C(F)(F)F)O1 [efavirenz, (S)6-chloro-4(cyclopropylethynyl)-1,4-dihydro-4-(trifluoromethyl)-2H-3,1-benzoxazin-2-one]
- heterodimer in lysates of yeast grown without drug, drug added during coimmunoprecipitation, W401A [1]: significantly more heterodimer present
- p66 bait coimmunoprecipitated with p51 prey, W401A [1]: clear increase
- enhancement of β-gal activity, W401A mutant, in words [3]: dramatic increase in β-gal activity
- effect on β-gal activity of unrelated protein-protein interaction pairs [8]: no enhancement or inhibition of β-gal activity
- binding to the RT heterodimer (RT heterodimer): bind very tightly
- β-gal enhancement with Y181C in the p66 bait [6]: significant level of β-gal enhancement was still retained
- increase in β-gal activity, empty vectors (lexA87 and Gal4AD): no increase in β-gal activity
- molar excess of drug giving a significant increase in dimer formation, W401A [9]: 10 fold molar excess

Molecule: COc1ccc2c(c1)N(C(=O)OC(C)C)[C@@H](CSC)C(=S)N2 [HBY 097, (S)-4-isopropoxycarbonyl-6-methoxy-3-(methylthiomethyl)-3,4-dihydroquinoxaline-2(1H)-thione]
- enhancement of β-gal activity, in words / relative potency [2, 10]: most potent
- inhibition of HIV-1 replication in vitro (HIV-1): extremely potent inhibitors
